Where “and” joins values, the source holds several entries; their conditions need not be identical. Equal values may be shown once. Read-outs that look alike come from different tables or passages of the source.
What was measured:
Type in all cases: cell-based
human Kir2.1 [1] = molecular target: T1, human Kir2.1 (Homo sapiens, UniProt P63252); assay: Kir2.1 thallium flux assay; settings: for Emax / Thallium Flux Efficacy (% Inhibition): efficacy from 4PL fit, relative to ML133; for Emax: read-out: Thallium Flux Efficacy (% Inhibition)
T1 construct: expressed in transfected cells
T1 sequence (P63252 1-427): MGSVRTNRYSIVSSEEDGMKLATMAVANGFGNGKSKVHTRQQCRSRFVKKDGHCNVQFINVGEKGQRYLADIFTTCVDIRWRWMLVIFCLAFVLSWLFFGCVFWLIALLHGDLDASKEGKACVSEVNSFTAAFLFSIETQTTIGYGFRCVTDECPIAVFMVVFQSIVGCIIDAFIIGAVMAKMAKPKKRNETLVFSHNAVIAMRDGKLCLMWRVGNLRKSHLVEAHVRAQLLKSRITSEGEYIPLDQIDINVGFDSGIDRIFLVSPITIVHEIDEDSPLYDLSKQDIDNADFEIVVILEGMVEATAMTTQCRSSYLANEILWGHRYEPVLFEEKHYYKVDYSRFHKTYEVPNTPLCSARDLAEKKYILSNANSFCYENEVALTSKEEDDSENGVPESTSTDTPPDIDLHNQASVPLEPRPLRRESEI
Procedure: Thallium Flux Assay Experimental Conditions
The Tl+ flux assays were conducted as previously described with modifications optimized for Kir2.1 cell line as described below.1
Briefly, stable T-REx-HEK-293 cells expressing human K ir2.1 were cultured in DMEM growth medium (Catalog #11965-092, Gibco, Billings, MT) containing 10% heat-inactivated FBS (Catalog #16140, Gibco), 100 U/mL PenStrep, 5 μg/mL Blasticidin S, and 250 μg/mL Hygromycin.
The day prior to the experiment, cells at ~90% confluency were resuspended in plating media, which consisted of the same components as the growth media, except that heat-inactivated FBS was replaced with dialyzed FBS (Catalog #26400, Gibco). Tetracycline was added to the plating media to achieve a final concentration of 1 μg/ml to induce hKir2.1 expression. Cells were then counted and plated at 15,000 cells/well in black-walled, amine- or PDL- coated, 384-well plates at 20 μl/well (Corning, Corning, NY). On the day of experiment, the media was removed from the cell plate and replaced with 20 μl/well of Tl+-sensitive dye loading solution containing 2.5 μg/ml Thallos-AM (Catalog #11000-050, ION Biosciences, San Marcos, TX) in assay buffer using a Multidrop Combi dispenser (Thermo Fisher Scientific, Walkham, MA). Cell plates loaded with dye solution were incubated for 1 hour at room temperature. Following incubation, the cell plate was washed with HBSS assay buffer containing 20 mM HEPES using a BioTek ELx 405 TS plate washer (Agilent, Santa Clara, CA), leaving 20 μl of assay buffer in each well. The cell plate was then transferred to a Panoptic kinetic imaging plate reader (WaveFront Biosciences, Franklin, TN) for imaging at 1 Hz, 482/35 nm excitation and 536/40 nm emission for 10 seconds. Following this, 20 μl/well of HBSS assay buffer containing test compounds at 2-fold over their final concentrations were added and imaging continued for another eight minutes, after which 10 μl/well of chloride-free Tl+ stimulus solution was added (Catalog #11000-050, ION Biosciences). The final Tl2SO4 concentration in cell plate post-Tl+ stimulus solution addition was 0.25 mM. Images were collected for an additional two minutes. A ten-point concentration series from 30 μM to 2 nM with a 1:3 dilution factor was generated using an Echo liquid handler 650 (Labcyte, San Jose, CA). Final DMSO concentration, 0.3% (v/v) in the assay was constant across all compound concentrations.
The initial slopes of the Tl+-induced fluorescence changes were fit to a four-parameter logistic equation using our in-house software Waveguide to determine potency and efficacy values. […]
Bauer, J. A.; Days, E. L.; Lindsley, C. […]

human Kir2.1 [2] = molecular target: T1, human Kir2.1; assay: Kir2.1 manual patch clamp (MPC) assay; settings: for Emax / Manual patch clamp Emax: % inhibition of Ba2+-sensitive current at highest tested concentration (3–30 μM); for IC50: pH 7.4, -120 mV, normalized to 2 mM Ba2+ block, top concentration 10 μM (ML133 30 μM, 5t 3 μM)
Procedure: (§1) Manual Patch Claim Assay Experimental Conditions
(§2) Whole-cell patch-clamp electrophysiology was used to record K ir2.1 currents from a stably transfected monoclonal T-Rex-HEK-293 cell line with a tetracycline-inducible promoter expressing human Kir2.1, as described previously1 cultured in a 5% CO2 incubator at 37°C. Kir2.1 expression was induced by overnight treatment with 1 µg/mL tetracycline. Cells were dissociated using 0.25% Trypsin-EDTA and seeded onto 12 mm circular coverslips (Electron Microscopy Sciences, PA, USA) for same-day whole-cell patch-clamp recordings. Kir2.1 currents were recorded at room temperature using an AxoPatch 200B amplifier with Clampex 10.7 software (Molecular Devices, USA). The voltage-clamp protocol consisted of a 1-s step to -120 mV from a -80 mV holding potential, followed by a 2-s ramp to +40 mV, repeated every 10 s. Data were sampled at 5 kHz and filtered at 1 kHz. Patch pipettes, pulled from 1.5 mm OD thin-walled capillaries (Warner Instruments, MA, USA) using a Sutter P-1000 puller (Sutter Instrument, CA, USA), had resistances of 2–3 MΩ when filled with intracellular solution containing (mM): 135 KCl, 10 HEPES, 1 EGTA, 2 MgCl2, 2 Na2ATP (pH 7.35, adjusted with KOH). The extracellular solution contained (mM): 135 NaCl, 5 KCl, 2 CaCl2, 1 MgCl2, 5 Glucose, 10 HEPES, 10 Sucrose (pH 7.35, adjusted with NaOH). After establishing stable baseline Kir2.1 currents, cells were perfused with compounds at concentrations of 0.03–30 µM until response saturation (within minutes).
(§3) Recordings concluded with a 2 mM Ba2+ solution to isolate Ba2+-sensitive currents, with compound responses expressed as fractions of this current. Current amplitudes at the -120 mV step were analyzed using Clampfit 11.2 (Molecular Devices). IC50 values were calculated by fitting the Hill equation to concentration-response curves (CRCs) using variable -slope nonlinear regression in GraphPad Prism 10.4 (GraphPad Software).
(§4) MPC experiments for Kir2.2 and Kir2.3 were conducted in an analogous fashion.1

Kir2.2 = molecular target: T2, Kir2.2 (Homo sapiens, UniProt Q14500); assay: Kir2.2 manual patch clamp (MPC)
T2 construct: expressed in transfected cells
T2 sequence (Q14500 1-433): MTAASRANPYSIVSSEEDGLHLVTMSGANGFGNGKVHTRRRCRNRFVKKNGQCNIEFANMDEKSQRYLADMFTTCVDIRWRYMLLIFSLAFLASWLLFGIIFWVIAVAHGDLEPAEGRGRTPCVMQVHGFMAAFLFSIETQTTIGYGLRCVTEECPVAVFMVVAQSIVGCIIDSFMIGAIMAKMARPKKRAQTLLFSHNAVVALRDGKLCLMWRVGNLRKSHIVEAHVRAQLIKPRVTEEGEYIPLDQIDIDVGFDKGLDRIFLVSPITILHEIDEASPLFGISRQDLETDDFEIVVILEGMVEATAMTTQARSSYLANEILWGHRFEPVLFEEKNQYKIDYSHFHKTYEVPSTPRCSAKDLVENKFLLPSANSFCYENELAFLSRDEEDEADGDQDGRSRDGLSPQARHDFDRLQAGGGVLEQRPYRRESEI
Procedure: as §1, §2, §3, §4

[3] = T-REx-HEK-293 cells expressing human Kir2.1, 4PL fit, top concentration 30 μM, read-out: Thallium Flux Potency IC50

Row | Structure (SMILES) | Thallium flux potency relative to ML133 (human Kir2.1 [1]) | IC50 (human Kir2.1 [1]; [3]) [µM] | Emax (human Kir2.1 [1]) [%] | Emax (human Kir2.1 [2]; pH 7.4) [%] | IC50 (human Kir2.1 [2]) | Fold more potent than ML133 in MPC (human Kir2.1 [2]; pH 7.4) | MPC potency relative to ML133 (human Kir2.1 [2]; pH 7.4) | IC50 (Kir2.2) [µM] | Kir2.1/Kir2.2 Selectivity (MPC) (Kir2.2) [fold] | Kir2.1/Kir2.2 Selectivity (MPC) (Kir2.2; listed as VU6080824) | Thallium Flux Efficacy (% Inhibition) (human Kir2.1 [1]) [%] | Manual patch clamp Emax (human Kir2.1 [2]; pH 7.4) [%] | IC50 (human Kir2.1 [1]; mean ± SEM over 9 experimental plates in triplicate, read-out: Thallium flux pIC50 (converted)) [µM]
1 | [2H]C([2H])([2H])Oc1ccc(CNCc2cccc3ccccc23)cc1 [Compound 7] | equipotent | 11.1 | 102 | 82 | 3.94 µM | – | – | – | – | – | – | – | –
2 | [2H]C([2H])([2H])Oc1ccc(CNCc2ccc(-c3cccc(OC)c3)cc2)cc1 [Compound 9] | – | – | – | – | – | – | – | – | 1.4 | – | 100 | 99 | –
3 | [2H]C([2H])([2H])Oc1cccc(-c2ccc(CNCc3ccc(OC)cc3)cc2)c1 [Compound 11] | – | – | – | – | – | – | – | – | 0.73 | – | 100 | 99 | –
4 | [2H]C([2H])([2H])Oc1ccc(CNCc2ccc(-c3cccc(OC([2H])([2H])[2H])c3)cc2)cc1 [Compound 13] | – | – | – | – | – | – | – | – | 3.2 | – | 100 | 99 | –

More lines, now with the values ahead:

Row | Thallium flux potency relative to ML133 (human Kir2.1 [1]) | IC50 (human Kir2.1 [1]; [3]) [µM] | Emax (human Kir2.1 [1]) [%] | Emax (human Kir2.1 [2]; pH 7.4) [%] | IC50 (human Kir2.1 [2]) | Fold more potent than ML133 in MPC (human Kir2.1 [2]; pH 7.4) | MPC potency relative to ML133 (human Kir2.1 [2]; pH 7.4) | IC50 (Kir2.2) [µM] | Kir2.1/Kir2.2 Selectivity (MPC) (Kir2.2) [fold] | Kir2.1/Kir2.2 Selectivity (MPC) (Kir2.2; listed as VU6080824) | Thallium Flux Efficacy (% Inhibition) (human Kir2.1 [1]) [%] | Manual patch clamp Emax (human Kir2.1 [2]; pH 7.4) [%] | IC50 (human Kir2.1 [1]; mean ± SEM over 9 experimental plates in triplicate, read-out: Thallium flux pIC50 (converted)) [µM] | Structure (SMILES)
5 | equipotent | 11.2 | 99 | 92 | 3.03 µM | – | – | – | – | – | – | – | – | COc1ccc(CNCc2ccc3c(c2)OC(F)(F)O3)cc1 [Compound 5h]
6 | – | 12.8 | 106 | 100 | 0.39 µM | 3–5 fold | – | – | – | – | – | – | – | COc1ccc(CNCc2cccc(-c3ccccc3)c2)cc1 [Compound 5j]
7 | – | 8.2 | 101 | 99 | 1.39 µM | – | equipotent | – | – | – | – | – | – | COc1ccc(CNCc2ccc(-c3ccccc3)cc2)cc1 [Compound 5k]
8 | – | 8.1 | 99 | 98 | 0.3 µM | 3–5 fold | – | – | – | – | – | – | – | COc1ccc(CNCc2ccc(-c3cccc(F)c3)cc2)cc1 [Compound 5p]
9 | – | 5.9 | 101 | 100 | 0.35 µM | 3–5 fold | – | 0.75 | 2.1 | approximately 2 fold | – | – | – | COc1ccc(CNCc2ccc(-c3cccc(OC)c3)cc2)cc1 [Compound 5s, 1-(3′-Methoxy-[1,1’-biphenyl]-4-yl)-N-(4-methoxybenzyl)methanamine]
10 | – | 4.9 | 100 | 98 | 0.48 µM | 3–5 fold | – | – | – | – | – | – | – | COc1ccc(CNCc2ccc(-c3cccc(C#N)c3)cc2)cc1 [Compound 5t]
11 | – | 10.1 | 101 | 99 | 1.5 µM and 1.51 µM | – | – | – | – | – | – | – | 10.5 | COc1ccc(CNCc2cccc3ccccc23)cc1 [ML133, N-(4-methoxybenzyl)-1-(naphthalen-1-yl)methanamine, reference compound]

— PMC12434521, “Characterization of Next-Generation Inhibitors for the Inward-Rectifier Potassium Channel Kir2.1: Discovery of VU6080824” (ACS Medicinal Chemistry Letters, 2025)
